In publication PMC5400251, “Effect of quinoline based 1,2,3-triazole and its structural analogues on growth and virulence attributes of Candida albicans” (PLoS ONE, 2017):
Converted amounts (≈) assume the structure as drawn.

Assays:
[1] = biological target: T1, plasma membrane H+ ATPase (Candida albicans, UniProt P28877); assay: Measurement of intracellular pH (pHi); format: cell-based, C. albicans ATCC 90028; conditions: 100 μg/mL; untreated 6.3
T1 construct: endogenous in cells; host or cells: C. albicans ATCC 90028; clinical isolates C. albicans D27 (FLC-susceptible) and D15.9 (FLC-resistant); mid-log phase whole cells
T1 sequence (P28877 whole entry): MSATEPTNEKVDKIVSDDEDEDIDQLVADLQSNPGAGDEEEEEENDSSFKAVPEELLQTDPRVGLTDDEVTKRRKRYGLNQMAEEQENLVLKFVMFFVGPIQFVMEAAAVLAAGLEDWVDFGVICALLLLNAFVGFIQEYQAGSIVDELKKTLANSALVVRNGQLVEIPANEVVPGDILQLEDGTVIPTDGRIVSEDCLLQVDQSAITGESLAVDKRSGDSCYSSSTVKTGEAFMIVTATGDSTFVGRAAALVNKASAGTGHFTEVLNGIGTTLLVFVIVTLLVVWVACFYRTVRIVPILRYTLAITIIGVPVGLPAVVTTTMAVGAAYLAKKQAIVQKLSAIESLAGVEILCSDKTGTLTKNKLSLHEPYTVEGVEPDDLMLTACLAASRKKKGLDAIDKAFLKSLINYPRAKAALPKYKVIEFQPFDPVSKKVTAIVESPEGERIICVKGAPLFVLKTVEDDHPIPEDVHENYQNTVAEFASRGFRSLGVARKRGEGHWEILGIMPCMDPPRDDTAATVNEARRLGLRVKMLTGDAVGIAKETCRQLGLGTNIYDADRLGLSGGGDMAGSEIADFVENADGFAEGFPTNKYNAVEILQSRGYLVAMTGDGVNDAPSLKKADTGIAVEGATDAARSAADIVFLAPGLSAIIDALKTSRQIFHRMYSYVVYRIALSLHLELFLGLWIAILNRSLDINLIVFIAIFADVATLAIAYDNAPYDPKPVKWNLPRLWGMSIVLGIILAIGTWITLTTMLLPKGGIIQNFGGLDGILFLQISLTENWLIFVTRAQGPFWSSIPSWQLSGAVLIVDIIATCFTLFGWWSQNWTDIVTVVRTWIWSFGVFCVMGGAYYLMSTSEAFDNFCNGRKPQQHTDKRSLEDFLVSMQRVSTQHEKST
Method: (§1) In yeast cells, plasma membrane H^+-ATPase helps to maintain internal pH between 6.0 and 7.5. Intracellular pH (pHi) was measured as reported earlier by Manzoor et al.. Mid-log phase cells were harvested from SD medium and washed thrice with PBS. Subsequently, cells (0.1 g) were suspended in 5 mL solution of 0.1 M KCl, and 0.1 mM CaCl2 in distilled water. Compounds 3a and 3b were added to the suspension at a desired concentration of 100 μg/mL. […] Initial pH of the suspension was adjusted to 7.0 in each case and incubated for 30 min at 37°C with constant stirring. After incubation, the pH of suspension was again adjusted to 7.0 followed by the addition of nystatin (20 μM) and incubation at 37°C for 1 h. The change in pH of the suspension was monitored on a pH meter with constant stirring. The value of external pH at which nystatin permeabilization induced no further shift was taken as an estimate of pHi.

[2] = biological target: T1, plasma membrane H+ ATPase; assay: Measurement of intracellular pH (pHi); format: cell-based, C. albicans D27 (FLC-susceptible); conditions: 100 μg/mL; untreated 6.6
Method: as §1

[3] = biological target: T1, plasma membrane H+ ATPase; assay: Proton extrusion measurement (H+ efflux); format: cell-based, C. albicans D27 (FLC-susceptible)
Method: (§2) The proton pumping activity of C. albicans was determined by monitoring acidification of external medium by measuring pH as describe earlier. In brief, the mid-log phase cells were harvested from SD medium by centrifugation at 3000 rpm for 15 min which is followed by three washings with phosphate buffer saline (PBS). A solution containing 0.1 M KCl and 0.1 mM CaCl2 in distilled water was prepared. Compounds 3a and 3b at the concentrations of 50 and 100 μg/mL were separately added in this solution. […] Initial pH was adjusted to 7.0 using 0.01 M HCl/NaOH. Approximately 0.2 g of cells were suspended in each set of solution. Suspension was kept in a double-jacketed glass container with constant stirring. Again, the pH of suspension was maintained as 7.0 for 1 min by using 0.01 N NaOH. The rate of H^+ extrusion was then monitored and calculated from the volume of 0.01 N NaOH consumed per min per mg weight of cells. Glucose has been reported as the stimulator of proton extrusion pump. Therefore above experiment was also repeated in the presence of 5 mM of glucose.

proteinase secretion = assay: Proteinase assay (BSA agar, Pz value); format: cell-based, C. albicans D15.9 (FLC-resistant); conditions: for Decrease of proteinase secretion: at MIC, 1 h exposure
Method: Following incubation, 1.5 mL of the yeast culture was taken into micro centrifuge tubes and centrifuged at 3000 rpm, for 5 min. The pellet obtained was washed by phosphate buffer saline (PBS) twice to remove the residual medium. […] Volumes of 1μL were placed at equidistant points on proteinase agar medium (0.1% yeast nitrogen base w/o amino acids; 0.145% ammonium sulfate; 2% glucose with 0.2% (w/v) BSA fraction V mixed into agar at ∼40°C) and incubated at 37°C for 3 days. The experiment was performed in duplicate. Secreted proteinase enzyme will degrade BSA and form zone of clearance around the yeast colonies. An index (Pz value) was used to represent the extent of proteinase activity by different strains of C. albicans. A Pz value of 1.0 depicts no enzyme activity. It was calculated as follows: Pzvalue=diameterofcolony/diameterofcolony+diameterofzoneofdegradation

C. tropicalis ATCC 750 = assay: Broth dilution IC50 determination; format: cell-based; conditions: Candida tropicalis, ATCC750, SD broth, 37°C, 24 h, OD 600 nm, read-out: Anti-Candida Activity (IC50± S.D.) C. tropicalis ATCC750
Method: (§3) Broth dilution technique was employed to determine the IC50 values of all the synthesized 1,2,3 triazole derivatives (3a-c) against C. albicans ATCC 90028, C. glabrata ATCC 90030, C. tropicalis ATCC 750 and four clinical isolates of C. albicans namely D27, D31, D39 (FLC-sensitive) and D15.9 (FLC-resistant). The strains were maintained on yeast extract:peptone:dextrose ([…]) nutrient agar (2.5%) slants at 4°C. The test compounds were dissolved in DMSO with less than 4% concentration of it in the final test volume. Different concentrations (1000… 7.8 μg/mL) of test compounds in Sabouraud dextrose (SD) broth medium were dispensed into the wells, then inoculated with the test organism with approx. 2.5 × 10^3 cells/mL and incubated at 37°C for 24 h. After incubation period, the optical density was measured at 600 nm by using Thermo Scientific Multiskan Go plate reader. […] All the experiments were done in triplicate at separate times.

C. glabrata ATCC 90030 = assay: Broth dilution IC50 determination; format: cell-based; conditions: Nakaseomyces glabratus, ATCC90030, SD broth, 37°C, 24 h, OD 600 nm, read-out: Anti-Candida Activity (IC50± S.D.) C. glabrata ATCC90030
Method: as §3

[4] = tested on: C. albicans D31 (FLC-sensitive clinical isolate); assay: Broth dilution IC50 determination; format: cell-based; conditions: Candida albicans, 24 h; read-out: Anti-Candida Activity (IC50± S.D.) C. albicans D31
Method: as §3

[5] = tested on: C. albicans ATCC 90028, C. albicans D27 and C. albicans D15.9; assay: Growth assay (growth curve), all three strains; format: cell-based
Method: The C. albicans cells were freshly revived by subculture on the SD agar plate. A loopful of inoculum was introduced into the SD broth and cells were grown for 16 h at 37°C before use. Approximately 2×10^3 cells/mL were then inoculated into the freshly prepared 50 mL sterile SD medium. […] At predetermined time periods (0, 2, 4, 6, 8, 10, 12, 14, 16, 18, 20 22, and 24 after incubation with agitation at 37°C), 1 mL aliquot of each sample was removed from the conical flask and growth was measured tubidometrically at 600 nm using Thermo Multiskan spectrophotometer. Optical density was recorded for each concentration against time (h).

ergosterol biosynthesis = assay: Ergosterol estimation assay
[6] = biological target: T1, plasma membrane H+ ATPase; assay: cell-based; design: species or system C. albicans D15.9 (FLC-resistant); conditions: for inhibition at 100 µg/mL: read-out: Inhibition of H+ extrusion
Method: as §2

[7] = 50 μg/mL in presence of glucose (5 mM)
[8] = 100 μg/mL in presence of glucose (5 mM)
[9] = in the presence of glucose (5 mM), 100 μg/mL, read-out: Inhibition of H+ extrusion rate
[10] = read-out: Inhibition of H+ extrusion

Row | SMILES | Intracellular pH (pHi) [1] | Intracellular pH (pHi) [2] | Range of relative H+ efflux rate [3, 7] | Range of relative H+ efflux rate ([3]; 50 μg/mL, no glucose) | Range of relative H+ efflux rate [3, 8] | Range of relative H+ efflux rate ([3]; 100 μg/mL, no glucose) | inhibition at 100 µg/mL [3, 9] | inhibition at 100 µg/mL [3, 10] | Decrease of proteinase secretion (proteinase secretion) | IC50 (C. tropicalis ATCC 750) | IC50 (C. glabrata ATCC 90030) | IC50 [4] | Mean decrease in total ergosterol content (ergosterol biosynthesis; above MIC/2, 16 h) | Mean decrease in total ergosterol content (ergosterol biosynthesis; at MIC/4, 16 h) | Range of relative H+ efflux rate [6, 7] | Range of relative H+ efflux rate ([6]; 50 μg/mL, no glucose) | Range of relative H+ efflux rate [6, 8] | Range of relative H+ efflux rate ([6]; 100 μg/mL, no glucose) | inhibition at 100 µg/mL [6] | other results
1 | c1ccc(Cn2cc(COc3cccc4cccnc34)nn2)cc1 [Compound 3a] | 5.2 | 5.2 | 21.60 ± 1.0 ×10^−6 mol min^−1 mg cells^−1 | 20.00 ± 1.0 ×10^−6 mol min^−1 mg cells^−1 | 19.30 ± 0.9 ×10^−6 mol min^−1 mg cells^−1 | 16.60 ± 0.8 ×10^−6 mol min^−1 mg cells^−1 | 52% | 45% | 45% | 3.6 ± 0.07 µg/mL (≈ 11.4 µM) | 12.02 ± 0.02 µg/mL (≈ 38 µM) | 3.3 ± 0.065 µg/mL (≈ 10.4 µM) | 100% | 48% | 28.30 ± 1.4 ×10^−6 mol min^−1 mg cells^−1 | 21.60 ± 1.0 ×10^−6 mol min^−1 mg cells^−1 | 20.00 ± 1.0 ×10^−6 mol min^−1 mg cells^−1 | 16.70 ± 0.8 ×10^−6 mol min^−1 mg cells^−1 | 40% | Decrease of proteinase secretion (fold) (proteinase secretion; Fig 4 legend): two fold; Lag phase (no growth) ([5]; 2MIC, MIC and MIC/2, all three strains): more than 24 h
2 | Clc1ccc(OCc2cn(Cc3ccccc3)nn2)c2ncccc12 [Compound 3b, 8-((1-Benzyl-1H-1,2,3-triazol-4-yl)methoxy)-5-chloroquinoline] | 4.7 | 5.1 | 22.30 ± 1.1 ×10^−6 mol min^−1 mg cells^−1 | 17.60 ± 0.8 ×10^−6 mol min^−1 mg cells^−1 | 19.30 ± 0.9 ×10^−6 mol min^−1 mg cells^−1 | 16.00 ± 0.8 ×10^−6 mol min^−1 mg cells^−1 | 52% | 65% | 23.5% | 23.6 ± 0.83 µg/mL (≈ 67.3 µM) | 73.3 ± 1.41 µg/mL (≈ 209 µM) | 41.5 ± 1.24 µg/mL (≈ 118 µM) | 100% | 33% | 25.00 ± 1.2 ×10^−6 mol min^−1 mg cells^−1 | 18.30 ± 0.9 ×10^−6 mol min^−1 mg cells^−1 | 21.00 ± 1.0 ×10^−6 mol min^−1 mg cells^−1 | 16.00 ± 0.8 ×10^−6 mol min^−1 mg cells^−1 | 42% | Growth inhibition ([5]; at 2MIC and MIC): significant growth inhibition
